Experimental data: ChEMBL document CHEMBL1909046, “DrugMatrix in vitro pharmacology data”

How the values were obtained:
[1] = target: T1, Alpha-1A adrenergic receptor (Rattus norvegicus, UniProt P43140); assay: DRUGMATRIX: Alpha-1A adrenergic receptor radioligand binding (ligand: prazosin); assay type: cell membranes, Wistar, Submaxillary gland, Membrane; details: Not Active = under 50% inhibition at 10 µM; for Ki: read-out: Ki
T1 sequence (P43140 whole entry): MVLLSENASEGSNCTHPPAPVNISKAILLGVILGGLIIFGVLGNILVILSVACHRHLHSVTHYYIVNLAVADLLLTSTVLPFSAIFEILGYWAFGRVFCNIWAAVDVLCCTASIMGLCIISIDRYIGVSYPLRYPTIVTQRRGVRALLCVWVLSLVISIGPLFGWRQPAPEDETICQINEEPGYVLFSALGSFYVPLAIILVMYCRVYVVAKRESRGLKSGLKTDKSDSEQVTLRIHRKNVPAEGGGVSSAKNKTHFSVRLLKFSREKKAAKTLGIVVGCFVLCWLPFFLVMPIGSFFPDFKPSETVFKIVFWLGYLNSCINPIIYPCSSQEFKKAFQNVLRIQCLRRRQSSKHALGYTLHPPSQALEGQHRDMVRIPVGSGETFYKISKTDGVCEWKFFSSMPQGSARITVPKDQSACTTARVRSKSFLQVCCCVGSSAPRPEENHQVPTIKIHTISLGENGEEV

[2] = target: Aldo-keto reductase family 1 member B1 (Rattus norvegicus, UniProt P07943); assay: biochemical; assay type: tissue-based, Lens of camera-type eye;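 also: inhibition of aldose reductase enzyme activity, measured with DL-glyceraldehyde as the substrate; in other assays of this panel Not Active means under 50% inhibition at 10 µM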
[3] = DRUGMATRIX: Tumor Necrosis Factor (TNF), Non-Selective radioligand binding (ligand: [125I] TNF-alpha); assay type: cell membranes, Membrane; details: u-937; Not Active = under 50% inhibition at 10 µM
[4] = DRUGMATRIX: Glutamate, NMDA, Phencyclidine radioligand binding (ligand: [3H] TCP); assay type: cell membranes, Rattus norvegicus, Wistar, Cerebral cortex, Membrane; details: Not Active = under 50% inhibition at 10 µM
[5] = DRUGMATRIX: Leukotriene, BLT (LTB4) radioligand binding (ligand: [3H]LTB4); assay type: cell membranes, Membrane; details: u-937, Not Active = under 50% inhibition at 10 µM
[6] = DRUGMATRIX: Phosphodiesterase PDE4 enzyme inhibition (substrate: [3H]cAMP + cAMP); details: u-937, Not Active = under 50% inhibition at 10 µM
[7] = target: Matrix metalloproteinase-9 (Homo sapiens, UniProt P14780); assay type: cell-based;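 also: inhibition of isolated MMP-9 enzyme activity toward a synthetic peptide substrate, from the DrugMatrix protease screening panel; in other assays of this panel Not Active means under 50% inhibition at 10 µM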
Chain of Matrix metalloproteinase-9 (P14780 whole entry): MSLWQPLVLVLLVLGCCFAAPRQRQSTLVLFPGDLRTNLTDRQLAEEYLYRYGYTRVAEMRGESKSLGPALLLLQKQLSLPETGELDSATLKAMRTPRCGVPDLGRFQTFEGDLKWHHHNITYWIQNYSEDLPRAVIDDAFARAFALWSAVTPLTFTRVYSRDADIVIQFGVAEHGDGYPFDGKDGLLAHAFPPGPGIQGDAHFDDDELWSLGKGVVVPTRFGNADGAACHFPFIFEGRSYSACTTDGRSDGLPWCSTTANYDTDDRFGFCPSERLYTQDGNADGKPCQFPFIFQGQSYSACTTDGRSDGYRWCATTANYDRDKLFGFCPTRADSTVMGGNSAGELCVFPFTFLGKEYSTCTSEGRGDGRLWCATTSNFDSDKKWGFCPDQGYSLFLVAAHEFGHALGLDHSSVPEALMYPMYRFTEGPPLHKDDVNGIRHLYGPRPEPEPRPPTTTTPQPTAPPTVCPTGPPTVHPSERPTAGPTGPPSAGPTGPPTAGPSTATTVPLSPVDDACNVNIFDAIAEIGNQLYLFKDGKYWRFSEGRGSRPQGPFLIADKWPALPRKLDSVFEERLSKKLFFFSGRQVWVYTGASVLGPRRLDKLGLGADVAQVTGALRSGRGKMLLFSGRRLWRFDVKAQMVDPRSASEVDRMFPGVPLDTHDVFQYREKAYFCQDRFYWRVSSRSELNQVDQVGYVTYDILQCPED

Compound	IC50 [1]	IC50 [2]	IC50 [3]	Ki [3]	IC50 [4]	Ki [4]	IC50 [5]	Ki [5]	IC50 [6]	Ki [6]	IC50 [7]	IC50 ([2]; read-out: IC50) [µM]	IC50 ([5]; read-out: IC50) [µM]	Ki ([5]; read-out: Ki) [µM]	IC50 ([6]; read-out: IC50) [µM]	IC50 ([1]; read-out: IC50) [nM]	Ki [1] [nM]
CC#C[C@]1(O)CC[C@H]2[C@@H]3CCC4=CC(=O)CCC4=C3[C@@H](c3ccc(N(C)C)cc3)C[C@@]21C [MIFEPRISTONE]	Not Active	Not Active	Not Active	Not Active	Not Active	Not Active	Not Active	Not Active	Not Active	Not Active	Not Active						
CC[C@@]1(O)C(=O)OCc2c1cc1n(c2=O)Cc2cc3c(CN(C)C)c(O)ccc3nc2-1 [TOPOTECAN]	Not Active	Not Active	Not Active	Not Active	Not Active	Not Active	Not Active	Not Active	Not Active	Not Active	Not Active						
Nc1nc(N)c2nc(-c3ccccc3)c(N)nc2n1	Not Active	Not Active	Not Active	Not Active	Not Active	Not Active	Not Active	Not Active	Not Active	Not Active	Not Active						
Cc1cc2c(s1)Nc1ccccc1N=C2N1CCN(C)CC1 [OLANZAPINE]		Not Active									Not Active						
CC[C@H](C)[C@@H](CO[C@@H](Cc1ccccc1)C(=O)N[C@@H](CCS(C)(=O)=O)C(=O)OC(C)C)NC[C@@H](N)CS	Not Active	Not Active	Not Active	Not Active	Not Active	Not Active	Not Active	Not Active	Not Active	Not Active	Not Active						
CO[C@@]12[C@H](COC(N)=O)C3=C(C(=O)C(C)=C(N)C3=O)N1C[C@@H]1N[C@@H]12 [MITOMYCIN]	Not Active	Not Active	Not Active	Not Active	Not Active	Not Active	Not Active	Not Active	Not Active	Not Active	Not Active						
CCOC(=O)C1=C(C)NC(C)=C(C(=O)OCC)C1c1ccccc1/C=C/C(=O)OC(C)(C)C [LACIDIPINE]	Not Active	Not Active	Not Active	Not Active	Not Active	Not Active	Not Active	Not Active	Not Active	Not Active	Not Active						
Cc1cn([C@H]2C=C[C@@H](CO)O2)c(=O)[nH]c1=O [STAVUDINE]	Not Active	Not Active	Not Active	Not Active	Not Active	Not Active	Not Active	Not Active	Not Active	Not Active	Not Active						
C#C[C@]1(O)CC[C@H]2[C@@H]3[C@H](C)CC4=C(CCC(=O)C4)[C@H]3CC[C@@]21C [TIBOLONE]	Not Active	Not Active	Not Active	Not Active	Not Active	Not Active	Not Active	Not Active	Not Active	Not Active	Not Active						
CC(O)C(=O)O (configuration not stated) [LACTIC ACID]	Not Active	Not Active	Not Active	Not Active	Not Active	Not Active	Not Active	Not Active	Not Active	Not Active	Not Active						
O=C(O)c1cc(/N=N/c2ccc(S(=O)(=O)Nc3ccccn3)cc2)ccc1O [SULFASALAZINE]	Not Active		Not Active	Not Active	Not Active	Not Active	Not Active	Not Active	Not Active	Not Active	Not Active	17					
CCN(CC)C(=S)SSC(=S)N(CC)CC	Not Active	Not Active	Not Active	Not Active	Not Active	Not Active					Not Active		29.9	7.58	4.8		
CNCCCC12CCC(c3ccccc31)c1ccccc12 [MAPROTILINE]		Not Active									Not Active					567	230
Cc1ccc(Cl)c(Nc2ccccc2C(=O)O)c1Cl [MECLOFENAMIC ACID]	Not Active	Not Active	Not Active	Not Active	Not Active	Not Active	Not Active	Not Active	Not Active	Not Active	Not Active						
CC(C)(C)NC[C@H](O)COc1cccc2c1CCCC2=O [LEVOBUNOLOL]	Not Active	Not Active	Not Active	Not Active	Not Active	Not Active	Not Active	Not Active	Not Active	Not Active	Not Active						
Cc1cccc(C)c1NC(=O)C(C)N (configuration not stated) [TOCAINIDE]	Not Active	Not Active	Not Active	Not Active	Not Active	Not Active	Not Active	Not Active	Not Active	Not Active	Not Active						
CCOc1cc(N)c(Cl)cc1C(=O)NCC1CN(Cc2ccc(F)cc2)CCO1 (configuration not stated) [MOSAPRIDE]	Not Active	Not Active	Not Active	Not Active	Not Active	Not Active	Not Active	Not Active	Not Active	Not Active	Not Active						
Cc1cnc(NC(=O)C2=C(O)c3ccccc3S(=O)(=O)N2C)s1 [MELOXICAM]	Not Active	Not Active	Not Active	Not Active	Not Active	Not Active	Not Active	Not Active	Not Active	Not Active	Not Active						
O=C1CC[C@@]2(O)[C@H]3Cc4ccc(O)c5c4[C@@]2(CCN3CC2CC2)[C@H]1O5 [NALTREXONE]	Not Active	Not Active	Not Active	Not Active	Not Active	Not Active	Not Active	Not Active	Not Active	Not Active	Not Active						
O=C(c1ccccc1)c1ccc2n1CCC2C(=O)O (configuration not stated) [KETOROLAC]	Not Active		Not Active	Not Active	Not Active	Not Active	Not Active	Not Active	Not Active	Not Active	Not Active	6.11					
Oc1ccc(/C=C/c2cc(O)cc(O)c2)cc1 [RESVERATROL]	Not Active	Not Active	Not Active	Not Active	Not Active	Not Active	Not Active	Not Active	Not Active	Not Active	Not Active						
CN1C(=O)OC(C)(C)C1=O [TRIMETHADIONE]	Not Active	Not Active	Not Active	Not Active	Not Active	Not Active	Not Active	Not Active	Not Active	Not Active	Not Active						
Cc1[nH]c(=O)c(C#N)cc1-c1ccncc1 [MILRINONE]	Not Active	Not Active	Not Active	Not Active	Not Active	Not Active	Not Active	Not Active	Not Active	Not Active	Not Active						
C[C@]12CCC(=O)C[C@@H]1CC[C@@H]1[C@@H]2CC[C@]2(C)[C@@H](O)CC[C@@H]12 [STANOLONE]	Not Active	Not Active	Not Active	Not Active	Not Active	Not Active	Not Active	Not Active	Not Active	Not Active	Not Active						
CCN(CC)CCNC(=O)c1cc(Cl)c(N)cc1OC [METOCLOPRAMIDE]	Not Active	Not Active	Not Active	Not Active	Not Active	Not Active	Not Active	Not Active	Not Active	Not Active	Not Active						
CN(C)CCC=C1c2ccccc2COc2ccccc21 [DOXEPIN]		Not Active									Not Active					107	43
